Source: publication PMC4467398, “Preclinical antitumor activity of ST7612AA1: a new oral thiol-based histone deacetylase (HDAC) inhibitor” (Oncotarget, 2014)

Tested on: DOHH2 and TMD8 DLBCL cells
Experiment: Gene expression profiling (HumanHT-12 v4 BeadChip, limma), ST7612AA1 300 nM 8 hrs vs DMSO
Format: cell-based, human
Conditions: 300 nM 8 hrs vs DMSO

CC(=O)SCCCCC[C@H](NC(=O)[C@H]1CCC(=O)N1)C(=O)Nc1ccccc1 [ST7612AA1]
log ratio ATP6V0C (probe ILMN_1773849): 8.22E-01
log ratio ATP6V1G2 (probe ILMN_1654541): 8.47E-01
log ratio ATP6V1H (ILMN_2403730): 6.35E-01
log ratio ATP7B (probe ILMN_1722056): 8.88E-01
log ratio AVEN (ILMN_1710216): -1.49E+00
log ratio AVPI1 (probe ILMN_1671731): 8.94E-01
log ratio AZI1 (probe ILMN_1746206): 7.59E-01
log ratio BAG2 (ILMN_3244893): -9.02E-01
log ratio BCCIP (ILMN_1771966): -9.03E-01
log ratio BCLAF1 (ILMN_1775192): -8.85E-01
log ratio BCLAF1 (ILMN_2357272): -8.42E-01
log ratio BEND3 (ILMN_2375032): -9.71E-01
log ratio BHLHB2 (ILMN_1768534): -5.96E-01
log ratio BID (ILMN_1763386): -1.18E+00
log ratio BID (ILMN_2372413): -8.80E-01
log ratio BIK (probe ILMN_1770505): 7.57E-01
log ratio BLK (ILMN_1668277): -8.77E-01
log ratio BLVRB (probe ILMN_1797793): 8.74E-01
log ratio BMF (ILMN_1695354): 6.49E-01
log ratio BNIP3L (probe ILMN_1718961): 8.34E-01
log ratio BPHL (probe ILMN_1657746): 8.91E-01
log ratio BRIX1 (ILMN_1679800): -1.03E+00
log ratio BRIX1 (ILMN_2155172): -1.19E+00
log ratio BRPF3 (ILMN_1658800): -7.82E-01
log ratio C3orf34 (probe ILMN_1665217): 6.96E-01
log ratio C4orf32 (probe ILMN_1700257): 8.83E-01
log ratio C7orf47 (ILMN_1741475): 6.62E-01
log ratio C7orf55 (ILMN_3238680): -1.06E+00
log ratio C8orf13 (ILMN_1687213): 6.60E-01
log ratio C8orf33 (ILMN_2098325): -8.34E-01
log ratio C9orf45 (ILMN_1719998): 6.75E-01
log ratio C10orf32 (ILMN_2151056): -8.22E-01
log ratio C12orf24 (ILMN_2180371): -1.09E+00
log ratio C12orf52 (probe ILMN_1667857): 6.98E-01
log ratio C13orf15 (probe ILMN_1658494): 7.74E-01
log ratio C13orf25 (ILMN_1660754): -8.20E-01
log ratio C14orf4 (ILMN_1804396): 6.53E-01
log ratio C14orf173 (probe ILMN_2393450): 7.70E-01
log ratio C14orf179 (probe ILMN_1756877): 7.81E-01
log ratio C16orf57 (ILMN_1765880): 6.49E-01
log ratio C17orf58 (ILMN_1712985): 6.08E-01
log ratio C17orf58 (ILMN_2398926): 6.52E-01
log ratio C18orf45 (ILMN_1690442): 6.69E-01
log ratio C18orf55 (ILMN_1748916): -8.33E-01
log ratio C19orf2 (ILMN_2406892): -6.10E-01
log ratio C20orf108 (ILMN_1708016): 6.16E-01
log ratio C20orf177 (ILMN_1718712): -9.03E-01
log ratio CA2 (probe ILMN_2199439): 7.93E-01
log ratio CABLES1 (ILMN_1653001): -5.93E-01
log ratio CALM1 (ILMN_1778242): 6.20E-01
log ratio CAMLG (probe ILMN_1714599): 7.30E-01
log ratio CARHSP1 (ILMN_1809477): 5.98E-01
log ratio CASC1 (ILMN_1708983): 6.58E-01
log ratio CASC4 (probe ILMN_2325574): 6.85E-01
log ratio CBX7 (probe ILMN_1657361): 7.49E-01
log ratio CCDC6 (ILMN_1745904): 6.24E-01
log ratio CCDC16 (ILMN_2154603): -8.59E-01
log ratio CCDC24 (probe ILMN_1718771): 6.89E-01
log ratio CCDC43 (ILMN_1743783): -5.96E-01
log ratio CCDC58 (ILMN_1686920): -1.25E+00
log ratio CCDC59 (ILMN_1662318): -8.48E-01
log ratio CCDC86 (ILMN_1792681): -9.35E-01
log ratio CCDC92 (probe ILMN_1731107): 8.05E-01
log ratio CCDC128 (ILMN_1667356): 6.21E-01
log ratio CCNYL1 (ILMN_1810069): 6.58E-01
log ratio CCNYL1 (ILMN_2166524): 6.44E-01
log ratio CCR7 (ILMN_1715131): 6.79E-01
log ratio CD58 (ILMN_1785268): -9.16E-01
log ratio CD58 (ILMN_2147517): -9.82E-01
log ratio CD74 (ILMN_1736567): 6.75E-01
log ratio CD74 (probe ILMN_1761464): 8.47E-01
log ratio CD74 (probe ILMN_2379644): 7.27E-01
log ratio CDC2L6 (probe ILMN_1676891): 6.96E-01
log ratio CDC25A (ILMN_1711005): -8.24E-01
log ratio CDC42EP5 (probe ILMN_1774982): 8.75E-01
log ratio CDK2AP2 (probe ILMN_1690653): 8.01E-01
log ratio CDK4 (ILMN_1689001): -8.13E-01
log ratio CECR1 (probe ILMN_1751851): 8.43E-01
log ratio CEP70 (ILMN_1741350): 6.16E-01
log ratio CERK (ILMN_1767475): 6.70E-01
log ratio CHCHD4 (ILMN_1813938): -1.36E+00
log ratio CHD7 (ILMN_1677376): 6.71E-01
log ratio CHRAC1 (ILMN_1722390): -6.19E-01
log ratio CHSY1 (ILMN_1791576): 6.80E-01
log ratio CLCC1 (probe ILMN_1671933): 8.48E-01
log ratio CLECL1 (ILMN_1782729): -1.24E+00
log ratio CLIC4 (probe ILMN_2063586): 7.49E-01
log ratio CLIP2 (ILMN_2352190): 6.09E-01
log ratio CMIP (ILMN_1738075): 6.47E-01
log ratio CMTM8 (probe ILMN_1710124): 7.00E-01
log ratio CNFN (ILMN_1803838): 6.20E-01
log ratio CNIH2 (ILMN_1698733): 6.32E-01
log ratio COCH (ILMN_1711514): -6.14E-01
log ratio COIL (ILMN_1688034): -9.94E-01
log ratio COTL1 (probe ILMN_1788283): 6.87E-01
log ratio CPOX (ILMN_3240389): 6.04E-01
log ratio CRIP1 (probe ILMN_1656920): 8.56E-01
log ratio CRYM (probe ILMN_1779241): 8.32E-01
log ratio CSRP1 (probe ILMN_1811921): 7.01E-01
log ratio CSTB (probe ILMN_1761797): 8.06E-01
log ratio CTPS (ILMN_1783285): -1.21E+00
log ratio CTSB (probe ILMN_2359742): 8.56E-01
log ratio CUEDC1 (ILMN_1676665): 5.93E-01
log ratio CUL1 (ILMN_1749629): -1.05E+00
log ratio CXADR (probe ILMN_1796925): 8.18E-01
log ratio CXCL16 (ILMN_1728478): 6.11E-01
log ratio CXorf26 (ILMN_1768176): -1.34E+00
log ratio CXorf57 (probe ILMN_1703279): 8.25E-01
log ratio CYB5R1 (probe ILMN_1729237): 7.59E-01
log ratio CYB5R3 (probe ILMN_1740441): 7.06E-01
log ratio CYP2R1 (probe ILMN_2119774): 7.88E-01
log ratio DAD1 (ILMN_1731619): 6.40E-01
log ratio DCTD (ILMN_1802456): -1.08E+00
log ratio DCTN6 (ILMN_1744059): -8.19E-01
log ratio DCXR (ILMN_1681437): 6.03E-01
log ratio DDN (ILMN_1673450): -6.03E-01
log ratio DDX21 (ILMN_1735461): -9.88E-01
log ratio DEF8 (probe ILMN_1767509): 8.37E-01
log ratio DGCR6L (probe ILMN_3245688): 7.47E-01
log ratio DGKQ (ILMN_1793017): 6.08E-01
log ratio DHRS2 (ILMN_1725726): 6.46E-01
log ratio DIS3L (ILMN_1795822): -1.05E+00
log ratio DKC1 (ILMN_1671257): -1.02E+00
log ratio DNLZ (ILMN_2112049): -1.09E+00
log ratio DNMT3B (probe ILMN_1794692): 8.14E-01
log ratio DOK4 (ILMN_1774261): 6.37E-01
log ratio DPF1 (ILMN_1769961): 6.38E-01
log ratio DPH2 (ILMN_2375418): -1.21E+00
log ratio DSTN (probe ILMN_1706426): 7.52E-01
log ratio DTX1 (ILMN_1689002): -5.96E-01
log ratio DUS3L (ILMN_1723235): -1.36E+00
log ratio DYNC1H1 (probe ILMN_1780302): 6.97E-01
log ratio DYNLL2 (probe ILMN_1772796): 8.61E-01
log ratio DYRK1A (ILMN_2374293): -5.97E-01
log ratio DYRK3 (probe ILMN_2400322): 6.97E-01
log ratio DYRK3 (probe ILMN_2400326): 8.26E-01
log ratio EARS2 (ILMN_1758750): -5.91E-01
log ratio EBI2 (ILMN_1798706): -8.22E-01
log ratio EBI2 (ILMN_2168217): -9.10E-01
log ratio ECHS1 (probe ILMN_1718132): 7.78E-01
log ratio EEF1B2 (ILMN_1685678): -8.07E-01
log ratio EEF1E1 (ILMN_1725105): -8.38E-01
log ratio EGR1 (probe ILMN_1762899): 8.42E-01
log ratio ELOF1 (probe ILMN_1723185): 7.14E-01
log ratio EMG1 (ILMN_1797074): -1.12E+00
log ratio ENC1 (probe ILMN_1779147): 7.93E-01
log ratio ENO2 (probe ILMN_1765796): 7.11E-01
log ratio EPB41L5 (ILMN_1770245): 6.78E-01
log ratio EPN1 (ILMN_1772981): 6.50E-01
log ratio ERRFI1 (probe ILMN_1665510): 7.44E-01
